The nature of series [1]: Cytotoxicity on murine macrophages, MTT assay. Type of series: cell-based. The note with it: mouse, J774A.1 macrophage cell line, J774A.1 macrophages, CC50 ± SEM. As for the experimental part: The cytotoxic effect of compounds 4a–i on murine macrophage cell lines J774A.1 (TIB-67, ATCC, Manassas, VA, USA) was assessed using the MTT assay (3-(4,5-dimethylthiazol-2-yl)-2,5-diphenyltetrazolium bromide) (Sigma-Aldrich, St. Louis, MO, USA), [14]. Macrophages were seeded in 96-well plates at a density of 10^4 cells/well and were cultured with 4a–i at different concentrations (10, 25, 50, and 130 µM) for 24 h (37 °C, 5% CO2). The cells were washed, MTT (5 mg/mL) added, and the cells were incubated for 4 h. The MTT product was diluted with 100 μL of DMSO (Sigma-Aldrich, St. Louis, MO, USA) and analyzed at 550 nm in a spectrophotometer (Thermo Fisher Scientific, Multiskan GO, Waltham, MA, USA) at 550 nm. 0.5% H2O2 (Merck, Darmstadt, Germany) was used as a positive control. The results were expressed as the percentage of viable cells compared to the control group. The cytotoxic concentration for 50% of the cells (CC50) was calculated by nonlinear regression to the dose-response curve using GraphPad Prism statistical software (GraphPad Software, Inc., San Diego, CA, USA, 500.288).
(§1) The half-maximal inhibitory concentration for 50% of parasites (IC50) was determined on L. amazonensis promastigotes treated with the nine compounds, and the cytotoxic concentration that causes the death of 50% of cells (CC50) on murine macrophages (J774A.1). IC50 and CC50 were calculated by nonlinear regression using GraphPad Prism statistical software (GraphPad Software, Inc., USA, 500.288). The tested compounds’ selectivity index was expressed as SI = CC50 on […] macrophages/IC50 on promastigotes forms.

Series [2] has as its system L. amazonensis promastigotes. The experiment in a line: Antipromastigote activity, MTT assay. Type of series: cell-based, Leishmania amazonensis. To be noted: for IC50: Leishmania amazonensis, L. amazonensis promastigotes, 24 h, MTT, IC50 ± SEM; for SI = selectivity index (CC50/IC50): CC50 macrophages / IC50 promastigotes. As for the experimental part:
The promastigote forms of L. amazonensis (MHOM/BR/1989/166MJO) were maintained in culture medium 199 (GIBCO, Invitrogen, New York, NY, USA) pH 7.18–7.22 supplemented with 10% fetal bovine serum (FBS) (GIBCO, Invitrogen, New York, NY, USA), 1M HEPES buffer, 1% human urine, 1% L-glutamine, 10 µg/mL streptomycin and 10 U/mL penicillin (GIBCO, Invitrogen, NY, USA) and 10% sodium bicarbonate. The parasite culture was maintained in a B.O.D. incubator at 24 °C in 25 cm^2 culture flasks. In all experiments, promastigote forms in the stationary growth phase were used (5-day culture).
The activities were evaluated by the 3-(4,5-dimethylthiazol-2-yl)-2,5-diphenyltetrazolium bromide (MTT) assay. L. amazonensis promastigote forms (10^6 cells/mL) were placed in 96-well plates and treated with the chalcone derivatives (4a–i) at different concentrations (10, 25, 50, and 130 µM) and maintained in a B.O.D incubator for 24 h at 24 °C. A solution of MTT (10 μL of a 5 mg/mL stock) (Sigma-Aldrich, St. Louis, MO, USA) was added to each well, and after 4 h, the plates were evaluated at λ = 550 nm using a spectrophotometer (Thermo Fisher Scientific, Multiskan GO, Waltham, MA, USA). L. amazonensis promastigotes maintained in culture M199 medium without treatment or with 0.01% DMSO (Sigma-Aldrich, St. Louis, MO, USA) served as negative and vehicle controls. 1 μM amphotericin B (AmB) (Sigma-Aldrich, St. Louis, MO, USA) was used as a positive control. The results of antipromastigote activities were expressed as half-maximal inhibitory concentrations for 50% of parasites (IC50) in μM. The IC50 values were calculated as the average of three independent experiments performed in duplicates.
as §1
Background: Tetrazolium assays rely on reduction of a dye to a coloured formazan, in cell work by metabolically active cells.

Series [3] deals with L. amazonensis promastigotes. Briefly: SEM and TEM morphological and ultrastructural analysis. The series is classed as cell-based, Leishmania amazonensis. To be noted: 3.3 μM and 6.6 μM, 24 h. On the procedure:
SEM was performed to analyze morphological changes in the cell surface topography. […] After the treatment, the parasites were fixed in 2.5% glutaraldehyde (Merck, Darmstadt, Germany) in 0.1 M sodium cacodylate buffer (Sigma-Aldrich, St. Louis, MO, USA) and adhered to coverslips covered with poly-L-lysine (Sigma-Aldrich, St. Louis, MO, USA) for 60 min. Parasites were dehydrated with increasing ethanol (Synth, Diadema, Brazil) concentrations (30–100%), submitted to critical point drying (Baltec SCD-030), metalized with gold, and visualized on a high-resolution double beam electron microscope FEI SCIOS.
To evaluate the ultrastructural changes by TEM, promastigotes were treated and fixed as described above. After the samples were post-fixed with 1% OsO4 (Sigma-Aldrich, St. Louis, MO, USA), 0.8% potassium ferrocyanide (Sigma-Aldrich, St. Louis, MO, USA), and 10.0 mM CaCl2 (Synth, Diadema, Brazil) in 0.1 M sodium cacodylate buffer for 1 h at room temperature and protected from light. Samples were washed in 0.1 M sodium cacodylate buffer, dehydrated in increased concentration of acetone (Synth, Diadema, Brazil) (50–100%), including in EPON resin, and polymerized at 60 °C for 72 h. […]

For series [4], the system named is L. amazonensis promastigotes. The experiment in a line: ROS generation in promastigotes (H2DCFDA probe). The note with it: 3.3 μM and 6.6 μM, 24 h. The series is classed as cell-based, Leishmania amazonensis. As for the experimental part: As a positive control, hydrogen peroxide (0.4% H2O2) was used, and the vehicle (DMSO 0.01%) was used for a negative control. ROS was measured as an increase in fluorescence caused by converting the non-fluorescent dye to the fluorescent 2.7-dichlorofluorescein, with an excitation wavelength of 488 nm and emission of 530 nm in a fluorescence microplate reader (Victor X3, PerkinElmer, Turku, Finland).

The subject of series [5] is L. amazonensis promastigotes. Briefly: Mitochondrial membrane potential (TMRE). The series is classed as cell-based, Leishmania amazonensis. To be noted: 3.3 μM and 6.6 μM, 24 h. As for the experimental part: To evaluate if the most promising chalcone (4f) alters the mitochondrial membrane potential, we conducted an assay using a tetramethylrhodamine ethyl ester (TMRE) staining (Sigma-Aldrich, St. Louis, MO, USA). […] Carbonyl cyanide m-chlorophenylhydrazone (100 μM) (CCCP) (Sigma-Aldrich, St. Louis, MO, USA) was used as a positive control, and the vehicle (DMSO 0.01%) was used as a negative control.

The subject of series [6] is L. amazonensis intracellular amastigotes. Briefly: Antiamastigote assay in infected J774A.1 macrophages. The series is classed as cell-based, Leishmania amazonensis. To be noted: 24 h; for reduction of infected macrophages: mean ± SEM. On the procedure:
Murine macrophages J774A.1 (5 × 10^5 cell/mL) were cultivated in 24-well plates. After infection, the non-internalized promastigotes were removed by washing with PBS, and the adherent macrophages infected were treated with the most promising chalcone (4f) in non-cytotoxic concentrations (10, 25, 50, and 130 μM) for 24 h (37 °C, 5% CO2). RPMI 1640 medium, DMSO (0.01%), and AmB (1 μM) were used as a negative control, vehicle, and positive control, respectively. Then, cells were stained with Leishman (Laborclin, Pinhais, Brazil), and 20 fields were analyzed by increased immersion (1000× magnification) using an optical microscope (Olympus BX41, Olympus Optical Co., Ltd., Tokyo, Japan) to determine the % of infected macrophages and the number of amastigotes/cells.

Structures are written as SMILES.

For orientation: CC50 means the concentration giving 50% cytotoxicity. Usually IC50 stands for the point on the concentration scale where inhibition reaches its midpoint. The low end stands for greater potency in that assay, the high end for weaker potency in that assay.

Turning to `COc1ccc(C(=O)/C=C/c2ccc(Cl)cc2Cl)c2c(OC)cccc12` [Compound 4e, (E)-3-(2,4-dichlorophenyl)-1-(4,8-dimethoxynaphthalen-1-yl)prop-2-en-1-one], it took 561.1 ± 0.03 µM to reach half-maximal cytotoxicity in series [1] (CC50 at 24 h). Also, in series [2], the IC50 was 37.7 ± 0.06 µM.
As to `COc1ccc(C(=O)/C=C/c2ccc([N+](=O)[O-])cc2)c2c(OC)cccc12` [Compound 4f, (E)-1-(4,8-dimethoxynaphthalen-1-yl)-3-(4-nitrophenyl)prop-2-en-1-one], in series [3], the “ultrastructural changes (TEM)” value is “an increase in autophagic vacuoles, lipid-storage bodies accumulation, mitochondrial swelling, and nuclear alterations”. Half-maximal cytotoxicity in series [1] (CC50 at 24 h) was put at 372.9 ± 0.04 µM. In addition, the “intracellular ROS levels (DCF fluorescence)” value in series [4] is “substantial rise in the intracellular ROS levels”. In addition, the “SI = selectivity index (CC50/IC50)” value in series [2] amounted to 112.6. Besides, the half-maximal inhibitory concentration (IC50) in series [2] was 3.3 ± 0.34 µM; in series [6] (Leishmania amazonensis, J774.A1, L. amazonensis-infected J774A.1 macrophages), 18.5 ± 1.19 µM. In addition, in series [5], the “mitochondrial membrane potential (ΔΨm), TMRE” value is “reduces the potential of the mitochondrial membrane (ΔΨm)”. Moreover, the “reduction of number of amastigotes per macrophage” value in series [6] (10 μM, compared to controls) stood at 14.14 ± 0.04%; in series [6] (25 μM, compared to controls), 36.20 ± 0.02%; in series [6] (50 μM, compared to controls), 39.33 ± 0.03%. In addition, the “reduction of infected macrophages” value in series [6] (10 μM) is 23.81 ± 1.07%; in series [6] (25 μM) it was 35.78 ± 1.59%; in series [6] (50 μM), 42.15 ± 0.49%; in series [6] (130 μM) it was 63.04 ± 0.35%.
Take `COc1ccc(C(=O)/C=C/c2ccc(Br)cc2)c2c(OC)cccc12` [Compound 4i, (E)-3-(4-bromophenyl)-1-(4,8-dimethoxynaphthalen-1-yl)prop-2-en-1-one]: the midpoint of cytotoxicity in series [1], the CC50 at 24 h, lay at 434 ± 0.05 µM. Also, in series [2], the “SI = selectivity index (CC50/IC50)” value is recorded as 17.8 and 24.3 ± 0.05 µM corresponded to half-maximal inhibition (IC50).
In turn, `COc1ccc(C(=O)/C=C/c2c(Cl)cccc2Cl)c2c(OC)cccc12` [Compound 4d, (E)-3-(2,6-dichlorophenyl)-1-(4,8-dimethoxynaphthalen-1-yl)prop-2-en-1-one] yielded a cytotoxic concentration (CC50) at 24 h in series [1] of 126.8 ± 0.09 µM. Also, the IC50 in series [2] came out at 94.1 ± 0.06 µM.
Take `C[C@@H]1[C@H](O)[C@@H](C)/C=C/C=C/C=C/C=C/C=C/C=C/C=C/[C@H](O[C@@H]2O[C@H](C)[C@@H](O)[C@H](N)[C@@H]2O)C[C@@H]2O[C@](O)(C[C@@H](O)C[C@@H](O)[C@H](O)CC[C@@H](O)C[C@@H](O)CC(=O)O[C@H]1C)C[C@H](O)[C@H]2C(=O)O` [AmB, Amphotericin B, reference compound]: the midpoint of cytotoxicity in series [1], the CC50 at 24 h, lay at 49.7 µM. In series [2], the “SI = selectivity index (CC50/IC50)” value was found to be 73.17 and the IC50 turned out to be 0.68 ± 0.21 µM. In addition, in series [6] (1 μM, positive control), the “reduction in the percentage of infected macrophages” value is reported as 95.25 ± 0.65% and the “reduction of number of amastigotes per macrophage” value stood at 89.55 ± 0.05%.
For the compound `COc1ccc(C(=O)/C=C/c2cccc([N+](=O)[O-])c2)c2c(OC)cccc12` [Compound 4g, (E)-1-(4,8-dimethoxynaphthalen-1-yl)-3-(3-nitrophenyl)prop-2-en-1-one], half-maximal cytotoxicity in series [1] (CC50 at 24 h) was put at 366 ± 0.13 µM. In series [2], the “SI = selectivity index (CC50/IC50)” value is 23.2 and the IC50 came out at 14.5 ± 0.09 µM.
In the same order, the values of `COc1ccc(C(=O)/C=C/c2ccccc2)c2c(OC)cccc12` [Compound 4h, (E)-1-(4,8-dimethoxynaphthalen-1-yl)-3-phenylprop-2-en-1-one] are 872.3 ± 0.134 µM, 33.44 and 26.1 ± 0.09 µM.
Taken in the same sequence, the figures for `COc1ccc(C(=O)/C=C/c2ccc(Cl)c(Cl)c2)c2c(OC)cccc12` [Compound 4c, (E)-3-(3,4-dichlorophenyl)-1-(4,8-dimethoxynaphthalen-1-yl)prop-2-en-1-one] were 194.3 ± 0.06 µM, 14.5 and 13.4 ± 0.08 µM.
Taken in the same sequence, the figures for `COc1ccc(/C=C/C(=O)c2ccc(OC)c3cccc(OC)c23)cc1` [Compound 4a, (E)-1-(4,8-dimethoxynaphthalen-1-yl)-3-(4-methoxyphenyl)prop-2-en-1-one] were 414.8 ± 0.04 µM, 1.7 and 264.1 ± 0.12 µM.
For the compound `COc1cccc(/C=C/C(=O)c2ccc(OC)c3cccc(OC)c23)c1` [Compound 4b, (E)-1-(4,8-dimethoxynaphthalen-1-yl)-3-(3-methoxyphenyl)prop-2-en-1-one], the CC50 at 24 h in series [1] is 246.7 ± 0.03 µM. Further, in series [2], the “SI = selectivity index (CC50/IC50)” value came to 3.7 and the IC50 came out at 67.1 ± 0.16 µM.
